Laboratory results reported in patent US20100040598A1, “KIT OF PARTS COMPRISING AN ACID LABILE AND AN ACID RESISTANT PHARMACEUTICALLY ACTIVE INGREDIENT” (priority 2006, published 2010).
Like-named read-outs stand apart in the source and are kept apart here.

Tests used:
[1] = Influence of food intake on absorption of clavulanic acid and amoxicillin (plasma pharmacokinetics after test tablet, Comparative Example A); type: in vivo, human; conditions: for AUC(0-inf) / Cmax / Tmax: human, plasma, oral, one test tablet
Method: An exploratory study involving 9 healthy volunteers receive the test product under fasted and fed conditions. The test product is AUGMENTIN™ XR as commercially available by Glaxosmithkline, and is an extended release tablet containing 1000 mg amoxicillin and 62.5 mg clavulanic acid wherein said tablet consists of a fast release layer comprising 562.5 mg as amoxicillin trihydrate and 62.5 mg clavulanic acid as clavulanate potassium salt, and of an extended release layer containing 437.5 mg amoxicillin as amoxicillin sodium salt. The test tablets are magnetically marked as described in Comparative Example B. The volunteers receive one test tablet together with 240 ml of non-carbonated water under the following conditions:
a) under fasting conditions: on one study day after a fasting period of at least 8 hours, b) at the beginning of a meal: on another study day after the first bite of a high […] standardized breakfast A, and c) under fed conditions: on still another study day 30 minutes after a high fat standardized breakfast B.
The standardized breakfast A consists of 2 slices of bread, 40 g cheese, 150 ml orange juice, 150 ml milk, and 20 g of cereals. The standardized breakfast B consists of 2 eggs fried in butter, 2 strips of bacon, 2 slices of toast with butter, 120 ml of hash brown potatoes and 240 ml of whole milk (3.5% fat).
(§1) Blood samples are taken before and 0.5, 1, 1.5, 2, 2.5, 3, 3.5, 4, 4.5, 5, 5.5, 6, 6.5, 7, 7.5, 8, 8.5, 9, 9.5, 10 and 12 hours after ingestion of the test tablet. Blood samples are centrifuged and stored at −80° C. Concentrations of both amoxicillin and clavulanic acid are determined according to known methods using a LC-MS/MS procedure (HPLC coupled Online with MS). Pharmacokinetic parameters are expressed as Cmax (maximal plasma concentration), AUC0→∞ (area under the plasma concentration-time curve extrapolated to infinity) and tmax (time of peak plasma concentration). Cmax and tmax as figuring in Tables 1 and 2 are determined from the 9 single values directly taken from the plasma-concentration-time curve. AUC0→tlast is calculated as follows: AUC0→∞=AUC0→tlast+AUCtlast→∞ wherein AUC0→tlast is the area under the plasma concentration-time curve from time of administration until time of last quantifiable concentration measured, i.e. Ct, and is calculated by using the linear trapezoid rule. AUCtlast→∞ is the extrapolated area to infinity that equals to Ct/Kel wherein Kel is the elimination rate constant. The results are reported using descriptive statistics.
Tables 1 and 2 show the pharmacokinetic parameters of clavulanic acid and amoxicillin, respectively, determined in human plasma from the blood samples taken after administration of one test tablet under fasting or fed conditions or at the beginning of a meal (values are mean values of 9 volunteers).

[2] = Crossover bioavailability study of tablet B before and tablet A after food intake vs both after food intake (Example 3); type: in vivo, human; conditions: data not shown
Method: In this study 20 subjects are randomized in balanced manner into 2 sequences. The subjects in the sequence 1 obtain tablet B under fasting conditions and then tablet A 30 minutes after beginning of food intake whereas the subjects in the second sequence are dosed with both tablets (A and B) 30 minutes after beginning of food intake. The extended release tablet A contains 1125 mg amoxicillin whereas tablet B is an immediate release formulation comprising 875 mg as amoxicillin trihydrate and 125 mg clavulanic acid as clavulanate potassium salt. The volunteers receive […] of non-carbonated water to each tablet administered.
The standardized breakfast (before or between the dosing) consists of 2 eggs fried in butter, 2 strips of bacon, 2 slices of toast with butter, 120 ml of hash brown potatoes and 240 ml of whole milk (3.5% fat).
as §1, with “plasma concentration) and” for “plasma concentration),”, “infinity) which” for “infinity) and tmax (time of peak plasma concentration). Cmax and tmax as figuring in Tables 1 and 2”, “determined analogously as described above in comparative example A. Cmax is” for “determined from the 9 single values”, “curve. AUC0→∞” for “curve. AUC0→tlast”, “constant.” for “constant. The results are reported using descriptive statistics.”

[3] = More extensive study involving 70 volunteers with conventional test tablet without magnetic markers; type: in vivo, human; conditions: test tablet at the beginning of a meal, data not shown
Method: If a conventional combination of an acid labile active ingredient such as clavulanic acid and of an acid resistant active ingredient such as amoxicillin is administered according to a conventional scheme, namely both active ingredients simultaneously, concomitant food intake seems to strongly influence the plasma concentrations and thus bioavailability of the 2 active ingredients. This has been observed in the herein described exploratory study for a conventional combination in the form of a bilayer tablet comprising clavulanic acid for immediate release and amoxicillin for both immediate and extended release such as the herein described test tablet.

[4] = co-administered e.g. with sodium bicarbonate; compared to fasting; cited from earlier work

For `CC1(C)S[C@@H]2[C@H](NC(=O)[C@H](N)c3ccc(O)cc3)C(=O)N2[C@H]1C(=O)O` [amoxicillin], which AUC of amoxicillin ([1]; at the beginning of a meal compared with fasting and fed state) is on record?
The AUC of amoxicillin was “lies in between that observed for the fasting and for the fed state”.

What about the AUC of amoxicillin ([1]; fasting conditions compared with fed conditions) of the same molecule?
Its AUC of amoxicillin is “significantly reduced”.

What about the “Plasma concentrations of amoxicillin (FIG. 2): absorption” value ([1]; fed conditions compared with fasting conditions) of the same molecule?
Its value is “delayed absorption”.

And the tmax of amoxicillin ([1]; fed conditions compared with fasting or beginning of a meal)?
Its tmax of amoxicillin is “significantly delayed”.

What about the AUC(0-inf) ([1]; amoxicillin in human plasma, at the beginning of a meal, read-out: AUC0→∞, mean value ± s (converted)) of the same molecule?
Its AUC(0-inf) is 40900 ng·h/mL.

And the AUC(0-inf) ([1]; amoxicillin in human plasma, at the beginning of a meal, read-out: AUC0→∞, median (converted))?
Its AUC(0-inf) is 39100 ng·h/mL.

And the Cmax ([1]; amoxicillin in human plasma, at the beginning of a meal, read-out: Cmax, mean value ± s)?
The Cmax was 10400 ± 2000 ng/mL.

And the Cmax ([1]; amoxicillin in human plasma, at the beginning of a meal, read-out: Cmax, median)?
The Cmax was 9870 ng/mL.

What about the Tmax ([1]; amoxicillin in human plasma, at the beginning of a meal, read-out: tmax, mean value ± s (converted)) of the same molecule?
The Tmax was about 1.38 h.

What about the Tmax ([1]; amoxicillin in human plasma, at the beginning of a meal, read-out: tmax, median (converted)) of the same molecule?
Its Tmax is 1 h.

And the AUC(0-inf) ([1]; amoxicillin in human plasma, fasting conditions, 9 volunteers, read-out: AUC0→∞, mean value ± s (converted))?
Its AUC(0-inf) is 30900 ng·h/mL.

What about the AUC(0-inf) ([1]; amoxicillin in human plasma, fasting conditions, read-out: AUC0→∞, median (converted)) of the same molecule?
The AUC(0-inf) was 29000 ng·h/mL.

What about the Cmax ([1]; amoxicillin in human plasma, fasting conditions, read-out: Cmax, mean value ± s) of the same molecule?
Its Cmax is 10300 ± 1200 ng/mL.

What about the Cmax ([1]; amoxicillin in human plasma, fasting conditions, read-out: Cmax, median) of the same molecule?
The Cmax was 10300 ng/mL.

And the Tmax ([1]; amoxicillin in human plasma, fasting conditions, read-out: tmax, mean value ± s (converted))?
Its Tmax is about 1.5 h.

And the Tmax ([1]; amoxicillin in human plasma, fasting conditions, read-out: tmax, median (converted))?
The Tmax was 1.5 h.

What about the AUC(0-inf) ([1]; amoxicillin in human plasma, fed conditions (30 minutes after high fat breakfast), read-out: AUC0→∞, mean value ± s (converted)) of the same molecule?
The AUC(0-inf) was 43400 ng·h/mL.

And the AUC(0-inf) ([1]; amoxicillin in human plasma, fed conditions, read-out: AUC0→∞, median (converted))?
The AUC(0-inf) was 42100 ng·h/mL.

And the Cmax ([1]; amoxicillin in human plasma, fed conditions, read-out: Cmax, mean value ± s)?
Its Cmax is 9880 ± 2300 ng/mL.

What about the Cmax ([1]; amoxicillin in human plasma, fed conditions, read-out: Cmax, median) of the same molecule?
The Cmax was 9830 ng/mL.

What about the Tmax ([1]; amoxicillin in human plasma, fed conditions, read-out: tmax, mean value ± s (converted)) of the same molecule?
The Tmax was 2.28 h.

What about the Tmax ([1]; amoxicillin in human plasma, fed conditions, read-out: tmax, median (converted)) of the same molecule?
The Tmax was 1.5 h.

What about the “Maximum plasma concentrations Cmax of amoxicillin” value ([1]; test tablet after food intake compared with fasting) of the same molecule?
Its value is “slightly lower”.

What about the “Initial maximum plasma concentrations Cmax of amoxicillin” value ([2]; condition a) vs condition b)) of the same molecule?
The value was “higher initial maximum plasma concentrations”.

And the “Plasma level of amoxicillin (duration)” value ([2]; condition a) vs condition b))?
Its value is “slightly prolonged”.

For `O=C(O)[C@H]1/C(=C/CO)O[C@@H]2CC(=O)N21` [clavulanic acid], which “Cmax and AUC of clavulanic acid” value ([1]; fed state compared with fasting conditions) is on record?
Its value is “significantly reduced”.

And the AUC(0-inf) ([1]; clavulanic acid in human plasma, at the beginning of a meal, read-out: AUC0→∞, mean value ± s (converted))?
Its AUC(0-inf) is 3280 ng·h/mL.

And the AUC(0-inf) ([1]; clavulanic acid in human plasma, at the beginning of a meal, read-out: AUC0→∞, median (converted))?
Its AUC(0-inf) is 2880 ng·h/mL.

What about the Cmax ([1]; clavulanic acid in human plasma, at the beginning of a meal, read-out: Cmax, mean value ± s) of the same molecule?
Its Cmax is 1390 ± 400 ng/mL.

What about the Cmax ([1]; clavulanic acid in human plasma, at the beginning of a meal, read-out: Cmax, median) of the same molecule?
Its Cmax is 1240 ng/mL.

What about the Tmax ([1]; clavulanic acid in human plasma, at the beginning of a meal, read-out: tmax, mean value ± s (converted)) of the same molecule?
Its Tmax is 1.38 h.

And the Tmax ([1]; clavulanic acid in human plasma, at the beginning of a meal, read-out: tmax, median (converted))?
The Tmax was 1.5 h.

What about the AUC(0-inf) ([1]; clavulanic acid in human plasma, fasting conditions, 9 volunteers, read-out: AUC0→∞, mean value ± s (converted)) of the same molecule?
Its AUC(0-inf) is 3300 ng·h/mL.

What about the Cmax ([1]; clavulanic acid in human plasma, fasting conditions, 9 volunteers, read-out: Cmax, mean value ± s) of the same molecule?
The Cmax was 1400 ± 400 ng/mL.

What about the Tmax ([1]; clavulanic acid in human plasma, fasting conditions, 9 volunteers, read-out: tmax, mean value ± s (converted)) of the same molecule?
The Tmax was about 1.5 h.

What about the AUC(0-inf) ([1]; clavulanic acid in human plasma, fasting conditions, read-out: AUC0→∞, median (converted)) of the same molecule?
The AUC(0-inf) was 3020 ng·h/mL.

And the Cmax ([1]; clavulanic acid in human plasma, fasting conditions, read-out: Cmax, median)?
Its Cmax is 1350 ng/mL.

What about the Tmax ([1]; clavulanic acid in human plasma, fasting conditions, read-out: tmax, median (converted)) of the same molecule?
Its Tmax is 1.5 h.

What about the AUC(0-inf) ([1]; clavulanic acid in human plasma, fed conditions (30 minutes after high fat breakfast), read-out: AUC0→∞, mean value ± s (converted)) of the same molecule?
The AUC(0-inf) was 2200 ng·h/mL.

What about the AUC(0-inf) ([1]; clavulanic acid in human plasma, fed conditions, read-out: AUC0→∞, median (converted)) of the same molecule?
Its AUC(0-inf) is 2080 ng·h/mL.

And the Cmax ([1]; clavulanic acid in human plasma, fed conditions, read-out: Cmax, mean value ± s)?
Its Cmax is 970 ± 600 ng/mL.

And the Cmax ([1]; clavulanic acid in human plasma, fed conditions, read-out: Cmax, median)?
The Cmax was 830 ng/mL.

And the Tmax ([1]; clavulanic acid in human plasma, fed conditions, read-out: tmax, mean value ± s (converted))?
The Tmax was 2.07 h.

What about the Tmax ([1]; clavulanic acid in human plasma, fed conditions, read-out: tmax, median (converted)) of the same molecule?
Its Tmax is 2 h.

And the “Plasma concentrations of clavulanic acid (FIG. 1)” value ([1]; test tablet taken after a meal (breakfast B) compared with fasting)?
The value was “significantly reduced”.

What about the “Plasma concentrations of clavulanic acid” value ([2]; condition a) tablet B fasting, tablet A 30 minutes after beginning of food intake, vs b) both tablets 30 minutes after beginning of food intake) of the same molecule?
Its value is “significantly higher”.

What about the “Cmax and AUC0→∞ of clavulanic acid” value ([2]; condition a) vs condition b)) of the same molecule?
Its value is “significantly higher”.

And the “Bioavailability of clavulanic acid” value [3]?
Its value is “slightly decreased”.

For `COc1ccc2[nH]c([S+]([O-])Cc3ncc(C)c(OC)c3C)nc2c1` (stereo not shown) [omeprazole], which “Bioavailability, effect of food ingestion” value [4] is on record?
The value was “reduces bioavailability”.
